Assay results as given in patent US11498903B2 (BRISTOL-MYERS SQUIBB COMPANY, priority 2017, dated 2022).
pEC50: −log10 of the molar value. Read-outs that look alike come from different tables or passages of the source.

Biological target: T1, human APJ receptor (Homo sapiens, UniProt P35414)
T1 construct: expressed in transfected cells
T1 sequence (P35414 1-380): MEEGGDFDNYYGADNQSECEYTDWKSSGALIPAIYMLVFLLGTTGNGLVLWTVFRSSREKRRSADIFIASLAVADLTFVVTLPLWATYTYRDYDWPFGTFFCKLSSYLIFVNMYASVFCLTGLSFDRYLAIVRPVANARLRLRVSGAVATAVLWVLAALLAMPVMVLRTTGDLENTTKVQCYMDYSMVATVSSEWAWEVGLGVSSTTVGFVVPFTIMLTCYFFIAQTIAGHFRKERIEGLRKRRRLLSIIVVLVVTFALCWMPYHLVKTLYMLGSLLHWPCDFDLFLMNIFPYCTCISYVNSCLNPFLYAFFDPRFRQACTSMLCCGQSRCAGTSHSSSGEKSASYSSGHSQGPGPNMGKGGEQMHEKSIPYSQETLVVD
Experiment: Intracellular cAMP accumulation assay (APJ hcAMP, HTRF)
Format: cell-based
Conditions: HEK293 cells stably expressing human APJ receptor
Method in brief: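 HEK293 cells stably expressing human APJ, 5,000/well, incubated 30 min at room temperature with compound plus […] and 2 μM forskolin. cAMP read by HTRF against a cAMP standard curve; EC50 from variable-slope sigmoidal fit, Ymax as % of (Pyr1)apelin-13 inhibition.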

[1] = Table 1, inhibition of forskolin-mediated cAMP production, read-out: APJ hcAMP EC50
[2] = Table 2, read-out: APJ cAMP Human EC50

SMILES	pEC50 [1]	pEC50 [2]
CCC[C@@H](NC(=O)c1ccc(-c2cc(Cl)ccc2-c2nc3cc(C)ccc3[nH]2)c(C(=O)O)c1)c1ccccc1 [Example 14, 5′-chloro-2′-(5-methyl-1H-1,3-benzodiazol-2-yl)-4-{[(1R)-1-phenylbutyl]carbamoyl}-[1,1′-biphenyl]-2-carboxylic acid]	> 8.00	> 8.00
CCC[C@@H](NC(=O)c1ccc(-c2cc(Cl)ccc2-c2nc3cc(C4CC4)ccc3[nH]2)c(C(=O)O)c1)c1ccccc1 [Example 15, 5′-chloro-2′-(5-cyclopropyl-1H-1,3-benzodiazol-2-yl)-4-{[(1R)-1-phenylbutyl]carbamoyl}-[1,1′-biphenyl]-2-carboxylic acid]	> 8.00	> 8.00
CCC[C@@H](NC(=O)c1ccc(-c2cc(Cl)ccc2-c2nc3cc(CC(F)(F)F)ccc3[nH]2)c(C(=O)O)c1)c1ccccc1 [Example 16, 5′-chloro-4-{[(1R)-1-phenylbutyl]carbamoyl}-2′-[5-(2,2,2-trifluoroethyl)-1H-1,3-benzodiazol-2-yl]-[1,1′-biphenyl]-2-carboxylic acid]	> 8.00	> 8.00
CCC[C@@H](NC(=O)c1ccc(-c2cc(Cl)ccc2-c2nc3c(F)cccc3[nH]2)c(C(=O)O)c1)c1ccccc1 [Example 17, 5′-chloro-2′-(4-fluoro-1H-1,3-benzodiazol-2-yl)-4-{[(1R)-1-phenylbutyl]carbamoyl}-[1,1′-biphenyl]-2-carboxylic acid]	> 8.00	> 8.00
CCC[C@@H](NC(=O)c1ccc(-c2cc(Cl)ccc2-c2nc3cc(C(F)(F)F)ccc3[nH]2)c(C(=O)O)c1)c1ccccc1 [Example 18, 5′-chloro-4-{[(1R)-1-phenylbutyl]carbamoyl}-2′-[5-(trifluoromethyl)-1H-1,3-benzodiazol-2-yl]-[1,1′-biphenyl]-2-carboxylic acid]	> 8.00	> 8.00
CCC[C@@H](NC(=O)c1ccc(-c2cc(Cl)ccc2-c2nc3cc(C(C)(C)C)ccc3[nH]2)c(C(=O)O)c1)c1ccccc1 [Example 19, 2′-(5-tert-butyl-1H-1,3-benzodiazol-2-yl)-5′-chloro-4-{[(1R)-1-phenylbutyl]carbamoyl}-[1,1′-biphenyl]-2-carboxylic acid]	> 8.00	> 8.00
CCC[C@@H](NC(=O)c1ccc(-c2cc(Cl)ccc2-c2nc3c(O)cccc3[nH]2)c(C(=O)O)c1)c1ccccc1 [Example 20, 5′-chloro-2′-(4-hydroxy-1H-1,3-benzodiazol-2-yl)-4-{[(1R)-1-phenylbutyl]carbamoyl}-[1,1′-biphenyl]-2-carboxylic acid]	> 8.00	> 8.00
CCC[C@@H](NC(=O)c1ccc(-c2cc(Cl)ccc2-c2nc3cc(C(=O)OC)ccc3[nH]2)c(C(=O)O)c1)c1ccccc1 [Example 21, 5′-chloro-2′-[5-(methoxycarbonyl)-1H-1,3-benzodiazol-2-yl]-4-{[(1R)-1-phenylbutyl]carbamoyl}-[1,1′-biphenyl]-2-carboxylic acid]	> 8.00	> 8.00
CCC[C@@H](NC(=O)c1ccc(-c2cc(Cl)ccc2-c2nc3cc(OC(F)(F)F)ccc3[nH]2)c(C(=O)O)c1)c1ccccc1 [Example 22, 5′-chloro-4-{[(1R)-1-phenylbutyl]carbamoyl}-2′-[5-(trifluoromethoxy)-1H-1,3-benzodiazol-2-yl]-[1,1′-biphenyl]-2-carboxylic acid]	7.00 to 8.00	7.00 to 8.00
CCC[C@@H](NC(=O)c1ccc(-c2cc(Cl)ccc2-c2nc3ncc(C)cc3[nH]2)c(C(=O)O)c1)c1ccccc1 [Example 23, 5′-chloro-2′-{6-methyl-1H-imidazo[4,5-b]pyridin-2-yl}-4-{[(1R)-1-phenylbutyl]carbamoyl}-[1,1′-biphenyl]-2-carboxylic acid]	7.00 to 8.00	7.00 to 8.00
CCC[C@@H](NC(=O)c1ccc(-c2cc(Cl)ccc2-c2nc3ccncc3[nH]2)c(C(=O)O)c1)c1ccccc1 [Example 24, 5′-chloro-2′-{1H-imidazo[4,5-c]pyridin-2-yl}-4-{[(1R)-1-phenylbutyl]carbamoyl}-[1,1′-biphenyl]-2-carboxylic acid]	7.00 to 8.00	7.00 to 8.00
